Tests used:
(Bs)Ffh-NG = target: T1, (Bs)Ffh-NG (Bacillus subtilis, UniProt P37105); test: Isothermal titration calorimetry (ITC) of nucleotide binding; design: species or system B. subtilis; details: NG domain, 25 °C, one set of sites model
T1 construct: purified NG domains of (Ec)Ffh, (Ec)FtsY and (Bs)Ffh; His6 (N); made in house; host or cells: E. coli Rosetta pLysS
T1 sequence (P37105 1-297 limits assumed): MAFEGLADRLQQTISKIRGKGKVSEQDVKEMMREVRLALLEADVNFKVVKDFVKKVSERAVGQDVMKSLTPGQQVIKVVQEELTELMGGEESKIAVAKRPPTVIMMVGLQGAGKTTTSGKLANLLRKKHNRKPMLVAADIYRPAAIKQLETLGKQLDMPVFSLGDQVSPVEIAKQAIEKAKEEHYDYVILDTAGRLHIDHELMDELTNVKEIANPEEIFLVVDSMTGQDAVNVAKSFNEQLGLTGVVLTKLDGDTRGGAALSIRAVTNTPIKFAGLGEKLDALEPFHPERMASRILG
Method: (§1) Ligands and proteins (purified NG domains of (Ec)Ffh, (Ec)FtsY and (Bs)Ffh) were diluted with a buffer containing 20 mM HEPES-Na (pH 7.5), 200 mM NaCl, 20 mM MgCl2 and 20 mM KCl. The NG domains of (Ec)Ffh, (Ec)FtsY and (Bs)Ffh were titrated in the sample-cell at a nominal concentration of 25 µM each. The nucleotides GDP, GTP, ppGpp and pppGpp (Jena Bioscience, Germany) were placed in the syringe and their concentrations were predetermined by absorbance at 252 nm to saturate the protein samples during the titrations. All the measurements were performed at 25 °C with the instrument MicroCal PEAQ-ITC (©Malvern Panalytical) with a method consisting of 13 injections (first 0.4 µL, and the rest 3 µL each) and 150 s of spacing. The raw data (see source) were processed with the MicroCal PEAQ-ITC Analysis Software (©Malvern Panalytical) using the “one set of sites” models.

SRP/FtsY = target: T2, SRP/FtsY (Escherichia coli, UniProt P0AGD7+P10121); test: YohP insertion into SecYEG-proteoliposomes with purified SRP/FtsY, proteinase K resistance; format: biochemical, E. coli; details: added together with SRP/FtsY (20 ng µL−1 each), 10 µM GTP
T2 construct: (Ec)Ffh (full-length) was concentrated on a 10 kDa centrifugal filter; (Ec)FtsY (full-length) was re-buffered in HT buffer; His-tag; made in house; host or cells: E. coli
Method: For protein transport assay, YohP cloned in pET19b was synthesized in vitro using a purified transcription/translation system composed of cytosolic translation factors (CTF) and high salt-washed ribosomes[35],[36]. The ^35S-Methionine/^35S-Cysteine labeling mix was obtained from Perkin Elmer (Wiesbaden, Germany). INVs of E. coli cells were prepared by sucrose gradient centrifugation of cell extracts as described[76] and resuspended in INV buffer (50 mM triethanolamine acetate, pH 7.5, 200 mM sucrose, 1 mM DTT). […] The supernatant containing YohP was then incubated with INV, liposomes or SecYEG-proteoliposomes for 10 min at 37 °C in the presence of 10 µM GTP. […] Next, the samples were denatured at 56 °C for 10 min in 35 μL of TCA loading dye (prepared by mixing one part of solution III (1 M dithiothreitol) with 4 parts of solution II (6.33% (w/v) SDS, 0.083 M Tris, 30% (v/v) glycerol and 0.053% (w/v) bromophenol blue) and 5 parts of solution I (0.2 M Tris, 0.02 M EDTA pH 8)) and analyzed after separation on a modified SDS-PAGE[35] by phosphor imaging. For quantification of YohP insertion, autoradiography samples were analyzed by using the ImageQuant (GE Healthcare) software. […] Mean values and SEM values were determined by using either Excel (Microsoft Corp.) or GraphPad Prism (GraphPad Prism Corp. San Diego). […]

(Ec)FtsY-NG = target: T3, (Ec)FtsY-NG (Escherichia coli, UniProt P10121); test: Isothermal titration calorimetry (ITC) of nucleotide binding; design: species or system E. coli; details: NG domain, 25 °C, one set of sites model
T3 construct: purified NG domains of (Ec)Ffh, (Ec)FtsY and (Bs)Ffh; His6 (C); made in house; host or cells: E. coli BL21 (DE3)
Method: as §1

T2 sequence (P0AGD7 whole entry): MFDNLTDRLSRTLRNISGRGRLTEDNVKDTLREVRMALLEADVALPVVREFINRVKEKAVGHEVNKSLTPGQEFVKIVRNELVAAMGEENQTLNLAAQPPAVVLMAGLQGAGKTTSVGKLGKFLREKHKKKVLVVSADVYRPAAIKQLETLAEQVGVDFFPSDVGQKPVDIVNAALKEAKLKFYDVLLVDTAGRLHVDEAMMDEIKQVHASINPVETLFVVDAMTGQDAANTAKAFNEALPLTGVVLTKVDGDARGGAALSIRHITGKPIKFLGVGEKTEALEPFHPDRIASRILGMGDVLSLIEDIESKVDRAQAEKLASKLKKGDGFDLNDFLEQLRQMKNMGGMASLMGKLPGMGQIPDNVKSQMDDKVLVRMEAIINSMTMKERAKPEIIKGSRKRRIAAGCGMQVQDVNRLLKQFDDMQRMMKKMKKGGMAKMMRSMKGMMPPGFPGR
T2 sequence (P10121 whole entry): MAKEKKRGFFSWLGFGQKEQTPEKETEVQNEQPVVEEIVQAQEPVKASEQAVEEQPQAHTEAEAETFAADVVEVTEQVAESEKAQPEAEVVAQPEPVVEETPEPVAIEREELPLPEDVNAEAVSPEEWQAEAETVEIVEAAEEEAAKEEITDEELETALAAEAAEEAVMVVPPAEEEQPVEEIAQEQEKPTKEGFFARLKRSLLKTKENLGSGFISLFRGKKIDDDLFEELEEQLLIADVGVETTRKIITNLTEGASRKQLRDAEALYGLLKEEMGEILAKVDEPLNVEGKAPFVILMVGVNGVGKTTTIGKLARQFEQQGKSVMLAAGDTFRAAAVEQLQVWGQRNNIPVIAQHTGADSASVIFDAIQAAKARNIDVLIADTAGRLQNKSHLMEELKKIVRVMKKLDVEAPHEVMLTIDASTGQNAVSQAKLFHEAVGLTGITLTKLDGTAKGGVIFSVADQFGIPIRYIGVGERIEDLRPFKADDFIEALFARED
T3 sequence (P10121 197-497): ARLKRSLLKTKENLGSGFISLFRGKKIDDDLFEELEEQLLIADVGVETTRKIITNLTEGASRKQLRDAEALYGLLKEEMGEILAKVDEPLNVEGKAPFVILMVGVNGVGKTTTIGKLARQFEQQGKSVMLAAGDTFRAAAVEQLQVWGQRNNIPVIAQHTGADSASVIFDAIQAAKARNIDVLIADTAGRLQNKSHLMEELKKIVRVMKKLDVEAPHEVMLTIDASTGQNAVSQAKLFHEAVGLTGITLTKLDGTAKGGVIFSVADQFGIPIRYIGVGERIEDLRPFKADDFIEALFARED

Row | Structure (SMILES) | Kd ((Bs)Ffh-NG) [µM] | YohP insertion into SecYEG proteoliposomes (SRP/FtsY) | Kd ((Ec)FtsY-NG) [µM]
1 | Nc1nc2c(ncn2[C@@H]2O[C@H](COP(=O)(O)OP(=O)(O)O)[C@@H](OP(=O)(O)OP(=O)(O)O)[C@H]2O)c(=O)[nH]1 [ppGpp] | 4.8 ± 1.8 | reduced YohP insertion into SecYEG proteoliposomes drastically | 21.7 ± 5.4
2 | Nc1nc2c(ncn2[C@@H]2O[C@H](COP(=O)(O)OP(=O)(O)OP(=O)(O)O)[C@@H](OP(=O)(O)OP(=O)(O)O)[C@H]2O)c(=O)[nH]1 [pppGpp] | – | reduced YohP insertion into SecYEG proteoliposomes drastically | –

Reference: article PMC8881573, “Inhibition of SRP-dependent protein secretion by the bacterial alarmone (p)ppGpp” (Nature Communications, 2022)
